The results in this text go back to PubChem BioAssay AID330 (DTP/NCI, 2004).

In this assay the test system is P388 leukemia ip, CD2F1 mice, survival T/C. Nature of the assay: NCI In Vivo Anticancer Drug Screen. Data for tumor model P388 Leukemia (intraperitoneal) in CD2F1 (CDF1) mice. Conditions: endpoint: median survival time, higher = longer survival. The essentials: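 Mice carrying the transplanted tumor received test compound or vehicle. Survival was recorded in each group, and the value is the treated-group measurement divided by that of the vehicle-treated control group.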

Setting [1] is: dose: 50.0 mg/kg/injection, schedule: Q01DX005 (ip), vehicle: Klucel (hydroxypropylcellulose) (HPC).
Where [2] appears, read: dose: 100.0 mg/kg/injection, schedule: Q01DX005 (ip), vehicle: Klucel (hydroxypropylcellulose) (HPC).
Where [3] appears, read: dose: 200.0 mg/kg/injection, schedule: Q01DX005 (ip), vehicle: Klucel (hydroxypropylcellulose) (HPC).
[4] abbreviates: dose: 25.0 mg/kg/injection, schedule: Q01DX005 (ip), vehicle: Klucel (hydroxypropylcellulose) (HPC).
The mark [5] stands for this setting: dose: 100.0 mg/kg/injection, schedule: Q01DX009 (ip), vehicle: Klucel (hydroxypropylcellulose) (HPC).
[6] abbreviates: dose: 200.0 mg/kg/injection, schedule: Q01DX009 (ip), vehicle: Klucel (hydroxypropylcellulose) (HPC).
The mark [7] stands for this setting: dose: 50.0 mg/kg/injection, schedule: Q01DX009 (ip), vehicle: Klucel (hydroxypropylcellulose) (HPC).
The mark [8] stands for this setting: dose: 60.0 mg/kg/injection, schedule: Q01DX005 (ip), vehicle: Klucel (hydroxypropylcellulose) (HPC).
Where [9] appears, read: dose: 240.0 mg/kg/injection, schedule: Q01DX005 (ip), vehicle: Klucel (hydroxypropylcellulose) (HPC).
Setting [10] is: dose: 50.0 mg/kg/injection, schedule: Q01DX005 (ip), vehicle: saline with Tween-80.
[11] abbreviates: dose: 100.0 mg/kg/injection, schedule: Q01DX005 (ip), vehicle: saline with Tween-80.
[12] abbreviates: dose: 200.0 mg/kg/injection, schedule: Q01DX005 (ip), vehicle: saline with Tween-80.
Setting [13] is: dose: 50.0 mg/kg/injection, schedule: Q01DX009 (ip), vehicle: saline with Tween-80.
[14] abbreviates: dose: 100.0 mg/kg/injection, schedule: Q01DX009 (ip), vehicle: saline with Tween-80.
The mark [15] stands for this setting: dose: 200.0 mg/kg/injection, schedule: Q01DX009 (ip), vehicle: saline with Tween-80.
The mark [16] stands for this setting: dose: 100.0 mg/kg/injection, schedule: Q04DX003 (ip), vehicle: saline.
Setting [17] is: dose: 200.0 mg/kg/injection, schedule: Q04DX003 (ip), vehicle: saline.

Several values for one entry are separate records, joined by “and”; a condition that tells them apart may be missing. Equal entries are not always repeated. Toxic doses and inconclusive results are not listed.

Consider `CC(=NCCCCCCN=C(C)c1cc(O)ccc1O)c1cc(O)ccc1O`, for which the T/C was 92 % of control under setting [1], 94 % of control under setting [2] and 87 % of control under setting [3].
As to `C1C[O][Ge]2([O]1)[O]CC[O]2`, the T/C is 108 % of control (dose: 50.0 mg/kg/injection, schedule: Q01DX009 (ip), vehicle: saline); 101 % of control (dose: 100.0 mg/kg/injection, schedule: Q01DX009 (ip), vehicle: saline); 102 % of control (dose: 200.0 mg/kg/injection, schedule: Q01DX009 (ip), vehicle: saline).
Regarding `CC(=O)[C@]1(O)Cc2c(O)c3c(c(O)c2[C@@H](OC2CC(N)C(O)C(C)O2)C1)C(=O)c1c(OCc2ccccc2)cccc1C3=O` (stereo partly specified), the T/C is 101 % of control (dose: 12.5 mg/kg/injection, schedule: Q04DX003 (ip), vehicle: distilled water + Tween-80) and 91 % of control (dose: 100.0 mg/kg/injection, schedule: Q04DX003 (ip), vehicle: distilled water + Tween-80).
With `C1CCN2CC3CC(CN4CCCC[C@@H]34)[C@@H]2C1`, the T/C under setting [4] was 100 % of control.
For `CCOC(=O)Cc1ccccn1`, the T/C under setting [5] was 109 % of control; the T/C under setting [6] is 110 % of control; the T/C (dose: 400.0 mg/kg/injection, schedule: Q01DX009 (ip), vehicle: Klucel (hydroxypropylcellulose) (HPC)) is 119 % of control.
With `C=C1CC2C(C1=O)C(c1ccc(OC)cc1)C13OC1CCC23` (stereo unspecified), the T/C is 105 % of control (dose: 100.0 mg/kg/injection, schedule: Q04DX003 (ip), vehicle: Klucel (hydroxypropylcellulose) (HPC)); 96 % of control (dose: 200.0 mg/kg/injection, schedule: Q04DX003 (ip), vehicle: Klucel (hydroxypropylcellulose) (HPC)); 86 % of control (dose: 400.0 mg/kg/injection, schedule: Q04DX003 (ip), vehicle: Klucel (hydroxypropylcellulose) (HPC)).
For the molecule `CCc1nc(Cc2ccccc2)nc2c1nc(-c1ccccc1)n2Nc1ccccc1`, the T/C was 92 % of control (dose: 100.0 mg/kg/injection, schedule: Q01DX001 (ip), vehicle: saline with Tween-80); 98 % of control (dose: 200.0 mg/kg/injection, schedule: Q01DX001 (ip), vehicle: saline with Tween-80); 92 % of control (dose: 400.0 mg/kg/injection, schedule: Q01DX001 (ip), vehicle: saline with Tween-80).
Consider `Cc1ccnc(NC(=O)Nc2cc(Cl)ccc2Cl)c1`, for which the T/C was 100 % of control under setting [7] and 87 % of control under setting [5].
With `CC1(C)C2=CC3(C)N(CN2c2ccccc21)c1ccccc1C3(C)C` (stereo unspecified), the T/C by setting is: under setting [8], 92 % of control; (dose: 120.0 mg/kg/injection, schedule: Q01DX005 (ip), vehicle: Klucel (hydroxypropylcellulose) (HPC)) 95 % of control; under setting [9], 95 % of control.
Turning to `Cn1c(=O)c2c(c3ccccc31)OC(C)(C)C=C2`, the T/C runs as follows: under setting [10], 100 % of control; under setting [11], 100 % of control; under setting [12], 105 % of control.
In the case of `COC1/C=C\OC2(C)Oc3c(C)c(O)c4c(c3C2=O)C(=O)C(Br)=C(NC(=O)/C(C)=C\C=C/C(C)C(O)C(C)C(O)C(C)C(OC(C)=O)C1C)C4=O` (stereo unspecified), the T/C runs as follows: (dose: 25.0 mg/kg/injection, schedule: Q01DX009 (ip), vehicle: Klucel (hydroxypropylcellulose) (HPC)) 102 % of control; under setting [7], 97 % of control; under setting [5], 102 % of control; under setting [6], 100 % of control.
For `CCCCc1noc(N)c1SCC`, the T/C under setting [10] is 105 % of control, the T/C under setting [11] is 103 % of control and the T/C under setting [12] is 107 % of control.
Take `CC(C)C(C(=O)O)N(C(=O)CN)C(=O)Cc1ccccc1` (stereo unspecified): the T/C by setting is: under setting [13], 95 % of control; under setting [14], 93 % of control; under setting [15], 93 % of control.
For the molecule `CC(=O)N1C=[N+](C)C(C)(C)C1`, the T/C is 103 % of control under setting [16] and 90 % of control under setting [17].
As to `O=C1OC(=Nc2cccc([N+](=O)[O-])c2)c2ccccc21`, the T/C (dose: 25.0 mg/kg/injection, schedule: Q01DX009 (ip), vehicle: saline with Tween-80) is 99 % of control and 103 % of control; the T/C under setting [13] is 100 % of control and 95 % of control; the T/C under setting [14] was 99 % of control and 95 % of control; the T/C under setting [15] was 88 % of control and 95 % of control.
Turning to `CC(=O)c1c(C)n(-c2ccccc2)c2c1[nH]c1ccccc12`, the T/C is 94 % of control (dose: 3.75 mg/kg/injection, schedule: Q01DX005 (ip), vehicle: Klucel (hydroxypropylcellulose) (HPC)); 92 % of control (dose: 7.5 mg/kg/injection, schedule: Q01DX005 (ip), vehicle: Klucel (hydroxypropylcellulose) (HPC)); 86 % of control and 93 % of control (dose: 15.0 mg/kg/injection, schedule: Q01DX005 (ip), vehicle: Klucel (hydroxypropylcellulose) (HPC)); 93 % of control under setting [8]; 92 % of control under setting [9].
Turning to `Cc1nnc(Cc2ccccc2)c2n[nH]c(C)c12`, the T/C is 98 % of control under setting [7], 103 % of control under setting [5] and 95 % of control under setting [6].
Take `O=C(Nc1ccc(NC2=NCCN2)cc1)c1cccc(C(=O)Nc2ccc(NC3=NCCN3)cc2)c1`: the T/C reads like this: (dose: 5.0 mg/kg/injection, schedule: Q01DX009 (ip), vehicle: saline with Tween-80) 109 % of control; (dose: 30.0 mg/kg/injection, schedule: Q01DX009 (ip), vehicle: saline with Tween-80) 100 % of control.
With `O=[N+]([O-])c1nc(-[n+]2ccccc2)[n-]c1Br`, the T/C by setting is: under setting [16], 98 % of control; under setting [17], 100 % of control; (dose: 400.0 mg/kg/injection, schedule: Q04DX003 (ip), vehicle: saline) 95 % of control.
On to `COc1cccc2c1C(=O)c1c(O)c3c(c(O)c1C2=O)C[C@@](O)(C(C)NCCCO)C[C@@H]3OC1CC(N)C(O)C(C)O1` (stereo partly specified), for which the T/C is, setting by setting: (dose: 0.5 mg/kg/injection, schedule: Q01DX009 (ip), vehicle: water) 122 % of control; (dose: 1.0 mg/kg/injection, schedule: Q01DX009 (ip), vehicle: water) 150 % of control; (dose: 2.0 mg/kg/injection, schedule: Q01DX009 (ip), vehicle: water) 154 % of control and 163 % of control; (dose: 4.0 mg/kg/injection, schedule: Q01DX009 (ip), vehicle: water) 163 % of control and 173 % of control; (dose: 8.0 mg/kg/injection, schedule: Q01DX009 (ip), vehicle: water) 174 % of control and 175 % of control; (dose: 16.0 mg/kg/injection, schedule: Q01DX009 (ip), vehicle: water) 201 % of control.
`CCc1ccc2c(c1)C(O)(C#Cc1ccccc1)c1cc(CC)ccc1C2(O)C#Cc1ccccc1` (stereo unspecified): the T/C by setting is: (dose: 100.0 mg/kg/injection, schedule: Q04DX002 (ip), vehicle: saline with Tween-80) 93 % of control; (dose: 200.0 mg/kg/injection, schedule: Q04DX002 (ip), vehicle: saline with Tween-80) 93 % of control; (dose: 400.0 mg/kg/injection, schedule: Q04DX002 (ip), vehicle: saline with Tween-80) 93 % of control.
As for `COC(=O)C1=CSCCC1=O`, the T/C by setting is: under setting [1], 105 % of control; under setting [2], 106 % of control; under setting [3], 117 % of control.
For `COC(=O)Cc1onc(-c2ccccc2)c1[N+](=O)[O-]`, the T/C was 101 % of control (dose: 60.0 mg/kg/injection, schedule: Q01DX005 (ip), vehicle: saline with Tween-80); 101 % of control (dose: 120.0 mg/kg/injection, schedule: Q01DX005 (ip), vehicle: saline with Tween-80); 94 % of control (dose: 240.0 mg/kg/injection, schedule: Q01DX005 (ip), vehicle: saline with Tween-80).
On to `CCOC(=O)N[C@H]1CCc2cc(OC)c(OC)c(OC)c2-c2ccc(SC)c(=O)cc21`, for which the T/C was 163 % of control (dose: 0.75 mg/kg/injection, schedule: Q01DX009 (ip), vehicle: other); 172 % of control (dose: 1.5 mg/kg/injection, schedule: Q01DX009 (ip), vehicle: other); 109 % of control and 114 % of control (dose: 3.0 mg/kg/injection, schedule: Q01DX009 (ip), vehicle: other).
For the molecule `O=C1NC(=S)NC(=O)C1=Cc1cccc2cc3ccccc3cc12`, the T/C reads like this: under setting [4], 100 % of control; under setting [1], 89 % of control; under setting [2], 95 % of control.
